According to US20190015551A1, “CONSTRUCT FOR PREVENTING IMMUNOLOGICAL REJECTION GENERATED WHEN USED IN TRANSPLANTS, AND METHOD FOR USING COLLAGEN IN A GEL STATE, IN THE FORM OF DRY LYOPHILISED SPONGY MOULDINGS AND 3D MATRICES” (ADG I+D SPA, priority 2015, published 2019):

Test system: bacterial colonies in pig tissue
Test: Microbiological control of pig tissue treated with disinfectants (CFU/plate)
Assay type: cell-based
Text: FIG. 3. It is shown the microbiological control of tissue for obtaining the collagen product, by means of the methodology described in the present application. It corresponds to CFU/plate in pig tissue treated with povidone-iodine or peracetic acid. […] Abbreviations: PY—povidone-iodine, PA—Peracetic Acid, CFU—colony forming units, CC—work bell control.
FIG. 4. It is shown results of microbiological control. The photographs of the culture plates show the initial growth of bacterial colonies at the beginning (time 0), and the decrease of CFU at 5 minutes, 30 minutes, 1 hour and 3 hours of exposure to the disinfectant; in the top panel povidone-iodine (PY) and in the lower panel peracetic acid (PA).
• i) Sterilization and freezing of the tissue: Pig's head cheeks skin from 175 to 190 days of age were used. Which was immersed for 3.5 hours in a commercial solution of povidone-iodine 10% (Brand: Centrovet) and brushed on both sides every 30 minutes, in a sterile environment, and rinsed with ultra-pure quality water. […] The disinfected tissue is bagged and sealed to freeze at −80° C. (±2.0° C.) in ultra freezer (Brand: Thermoline).

`CC(=O)OO` [PA, peracetic acid] was tested, and the “formation of bacterial colonies on culture plates” value (3 hours of exposure to the disinfectant) was “the presence of a colony still persists”, the “UCF/plate in pig tissue treated with PY or PA” value (“UCF/plate in pig tissue treated” for short) (exposition time 0 min) was 132 UCF/plate and the “UCF/plate in pig tissue treated” value (exposition time 5 min) was 2 UCF/plate. For the same molecule, the “UCF/plate in pig tissue treated” value (exposition time 30 min) was 3 UCF/plate, the “UCF/plate in pig tissue treated” value (exposition time 1 hour) was 7 UCF/plate and the “UCF/plate in pig tissue treated” value (exposition time 3 hours) was 1 UCF/plate.
